In patent US11286268B1, “EIF4E-inhibiting compounds and methods” (EFFECTOR THERAPEUTICS, INC., priority 2019, dated 2022):
Where two headings read alike, the source gives them in different places.

Biological target: recombinant eIF4E (Homo sapiens (Human), UniProt P06730)
Assay: Fluorescence polarization competition assay for eIF4E binding potency
Procedure, shortened: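 IC50 derived from fluorescence polarization over an 8-point, 3-fold compound series after 30 min room-temperature equilibration in the dark. Mix: eIF4E 75 nM pre-bound 5 min to 20 nM EDA-m^7GDP-ATTO-550; buffer 20 mM Tris pH 7.5, 100 mM NaCl, 1 mM DTT, 0.02% Tween-20; DMSO 1%.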

[1] = fluorescence polarization competition, 75 nM recombinant eIF4E, 20 nM EDA-m7GDP-ATTO-550, IC50 class, read-out: elF4E FP
[2] = inhibition of eIF4E/EDA-m7GDP-ATTO-550 binding by 50%, Table 4B calculated values, read-out: IC50
[3] = inhibition of eIF4E/EDA-m7GDP-ATTO-550 binding, calculated IC50 values, Table 4B, read-out: IC50

Sequence of recombinant eIF4E (P06730 whole entry): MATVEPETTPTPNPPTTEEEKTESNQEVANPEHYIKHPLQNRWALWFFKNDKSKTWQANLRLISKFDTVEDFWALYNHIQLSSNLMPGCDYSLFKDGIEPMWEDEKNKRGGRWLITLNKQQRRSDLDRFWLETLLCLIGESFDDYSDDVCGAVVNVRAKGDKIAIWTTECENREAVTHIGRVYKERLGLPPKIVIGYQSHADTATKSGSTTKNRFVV

SMILES | IC50 [1] [nM] | IC50 [2] [nM] | IC50 [3] [nM]
Cc1nc2c(F)c(F)c(C(F)F)c(C#N)c2c(=O)n1CCOc1ccc(Cl)cc1-c1ccnc2c(C(=O)O)csc12 [compound 298] | 50 to 1000 | 101 | –
Cc1nc2cnc(C3=CCC(N(C)CC(F)F)CC3)c(C#N)c2c(=O)n1CC#Cc1ccc(Cl)cc1-c1ccnc2c(C(=O)O)csc12 (stereo not shown) [compound 1573] | – | – | 22.2
Cc1nc2cc(C(F)F)c(CN(C)C)c(C#N)c2c(=O)n1CCOc1ccc(Cl)cc1-c1ccnc2c(C(=O)O)csc12 [compound 530] | < 50 | 6.65 | –
Cc1nc2cnc(N3CCN(C(C)(C)CF)CC3)c(C#N)c2c(=O)n1CCOc1ccc(Cl)cc1-c1ccnc2c(C(=O)NS(C)(=O)=O)csc12 [compound 1483] | – | – | 13.7
Cc1cc(-c2c(C(F)F)cc3nc(C)n(CCOc4ccc(Cl)cc4-c4cc(C)nc5c(C(=O)O)csc45)c(=O)c3c2C#N)cc(C)n1 [compound 1385] | – | – | 7.24
Cc1nc2cc(C(F)(F)F)cc(C#N)c2c(=O)n1CCOc1ccc(Cl)cc1-c1cc(C2CC2)nc2c(C(=O)O)csc12 [compound 672] | 50 to 1000 | 106 | –
Cc1nc2cnc(N3CC(N4CCC(F)(F)CC4)C3)c(C#N)c2c(=O)n1CCOc1ccc(Cl)cc1-c1ccnc2c(C(=O)O)csc12 [compound 1340] | – | – | 44.2
Cc1cc(-c2cc(Cl)ccc2OCCn2c(C)nc3cc(C(F)(F)F)c(OCC(F)(F)F)c(C#N)c3c2=O)c2scc(C(=O)O)c2n1 [compound 1074] | < 50 | 17.4 | –
Cc1cc(-c2cc(Cl)ccc2OCCn2c(C)nc3cnc(O)c(C#N)c3c2=O)c2scc(C(=O)O)c2n1 [compound 1004] | < 50 | 22.5 | –
Cc1nc2cc(C(F)(F)F)c(N3CCN(C)CC3)c(C#N)c2c(=O)n1CCOc1ccc(Cl)cc1-c1cccc(C(=O)O)c1 [compound 374] | < 50 | 20.5 | –
Cc1cc(-c2cc(N3CC(F)(F)C3)ccc2OCCn2c(C)nc3cc(C(F)(F)F)c(N4CC(F)(F)C4)c(C#N)c3c2=O)c2scc(C(=O)O)c2n1 [compound 2036] | – | – | 38.4
Cc1nc2cnc(C(F)(F)C3CCN(CC(F)F)CC3)c(C#N)c2c(=O)n1CC#Cc1ccc(Cl)cc1-c1ccnc2c(C(=O)O)csc12 [compound 1572] | – | – | 20
Cc1nc2cnc(N(C)C3C[C@@H]4C[C@H]3CN4CC(C)(F)F)c(C#N)c2c(=O)n1CC#Cc1ccc(Cl)cc1-c1ccnc2c(C(=O)O)csc12 (stereo partly shown) [compound 1545] | – | – | 27.5
Cc1nc2cc(C(F)(F)F)cc(C#N)c2c(=O)n1CCOc1ccc(Cl)cc1-c1cccc(C(=O)O)c1C#N [compound 168] | < 50 | 37.2 | –
Cc1nc2cc(C(F)(F)F)cc(C#N)c2c(=O)n1CCOc1ccc(Cl)cc1-c1ccnc2c(O)csc12 [compound 663] | 50 to 1000 | 332 | –
Cc1sc2c(-c3cc(Cl)ccc3OCCn3c(C)nc4cnc(N5CCN(C)CC5)c(C#N)c4c3=O)ccnc2c1C(=O)O [compound 1282] | – | – | 38.2
N#Cc1cc(C(F)(F)F)cc2nc(CF)n(CCOc3ccc(Cl)cc3-c3cccc(C(=O)O)c3)c(=O)c12 [compound 182] | < 50 | 43.8 | –
Cc1cc(-c2cc(Cl)ccc2OCCn2c(C)nc3cnc(-c4ccccc4)c(C#N)c3c2=O)c2scc(C(=O)O)c2n1 [compound 1382] | – | – | 21.6
CCc1cc(-c2cc(Cl)ccc2OCCn2c(C)nc3cnc([C@@H]4[C@@H]5CN(C)C[C@@H]54)c(C#N)c3c2=O)c2scc(C(=O)O)c2n1 [compound 1216] | < 50 | – | 10.3
COC(=O)c1csc2c(-c3cc(Cl)ccc3C#CCn3c(C)nc4cnc(N(C)C5CCN(CC(F)F)CC5)c(C#N)c4c3=O)ccnc12 [compound 1113] | 50 to 1000 | 140 | –
Cc1cc(-c2cc(Cl)ccc2OCCn2c(C)nc3ccc(CCN(C)C)c(C#N)c3c2=O)c2scc(C(=O)O)c2n1 [compound 584] | < 50 | 23.5 | –
N#Cc1ccc(F)c2nc(C(F)F)n(CCOc3ccc(Cl)cc3-c3ccnc4c(C(=O)O)csc34)c(=O)c12 [compound 1941] | – | – | 61.6
Cc1c(C#N)c2cc(C(F)(F)F)cc(C#N)c2c(=O)n1CCOc1ccc(Cl)cc1-c1ccnc2c(C(=O)O)csc12 [compound 263] | < 50 | – | –
Cc1nc2cc(C(F)(F)F)nc(C#N)c2c(=O)n1CCOc1ccc(Cl)cc1-c1cccc(C(=O)O)c1 [compound 154] | 50 to 1000 | – | –
Cc1cc(-c2cc(Cl)ccc2OCCn2c(C)nc3cncc(C#N)c3c2=O)c2scc(C(=O)NS(C)(=O)=O)c2n1 [compound 600] | < 50 | 14.2 | –
Cc1nc2cnc(N(C)C3CCN(CC(F)F)CC3)c(C#N)c2c(=O)n1CC#Cc1ccc(Cl)cc1-c1ccnc2c(C(=O)NS(=O)(=O)CC(F)(F)F)csc12 [compound 1597] | – | – | 22.1
Cc1nc2cc(Cl)c(C(F)F)c(C#N)c2c(=O)n1CCOc1ccc(Cl)cc1-c1ccnc2c(C(=O)NS(C)(=O)=O)csc12 [compound 520] | < 50 | 18.3 | –

SMILES | IC50 [1] [nM] | IC50 [2] [nM] | IC50 [3] [nM]
Cc1cc(-c2cc(Cl)ccc2OCCn2c(C)nc3cc(C(F)(F)F)c(C4=CCN(C)CC4)c(C#N)c3c2=O)c2scc(C(=O)O)c2n1 [compound 373] | < 50 | 6.43 | –
Cc1nc2cnc(N(C)C3CCN(CCC(C)(F)F)CC3)c(C#N)c2c(=O)n1CC#Cc1ccc(Cl)cc1-c1ccnc2c(C(=O)NS(C)(=O)=O)csc12 [compound 1713] | – | – | 15.8
Cc1nc2c(N3CCN(CCF)C4CC43)ncc(C#N)c2c(=O)n1CCOc1ccc(Cl)cc1-c1ccnc2c(C(=O)O)csc12 (stereo not shown) [compound 817] | < 50 | – | –
Cc1cc(-c2cc(Cl)ccc2OCCn2c(C)nc3c(-c4ccccc4)nc(C4CC4)c(C#N)c3c2=O)c2scc(C(=O)O)c2n1 [compound 910] | < 50 | 17.5 | –
Cc1nc2c(N3CCNCC(F)(F)C3)ncc(C#N)c2c(=O)n1CCOc1ccc(Cl)cc1-c1ccnc2c(C(=O)O)csc12 [compound 837] | < 50 | 13.4 | –
Cc1cc(-c2cc(Cl)ccc2OCCn2c(C)nc3cc(C(F)(F)F)c(C4CC4)c(C#N)c3c2=O)c2scc(C(=O)O)c2n1 [compound 1049] | < 50 | 9.35 | –
Cc1nc2cc(Cl)cc(C#N)c2c(=O)n1CCOc1ccc(Cl)cc1-c1ccnc2c(C(=O)O)csc12 [compound 200] | < 50 | 43.5 | –
Cc1nc2cnc(N3CCN4CC(F)(F)CC4C3)c(C#N)c2c(=O)n1CCOc1ccc(Cl)cc1-c1ccnc2c(C(=O)O)csc12 (stereo not shown) [compound 1311] | – | – | 13.3
COC(=O)c1csc2c(-c3cc(Cl)ccc3OCCn3c(C)nc4cc(C(F)(F)F)c(Cl)c(C#N)c4c3=O)ccnc12 [compound 1905] | – | – | 881
O=C(O)c1cccc(-c2cc(Cl)ccc2OCCn2cnc3cnccc3c2=O)c1 [compound 1992] | – | – | 490
Cc1nc2cnc(N(C)C3CCN(CC4CC(OC(F)F)C4)CC3)c(C#N)c2c(=O)n1CC#Cc1ccc(Cl)cc1-c1ccnc2c(C(=O)O)csc12 (stereo not shown) [compound 1189] | < 50 | – | 13.4
Cc1cc(-c2cc(Cl)ccc2OCCn2c(C)nc3cc(Cl)c(-c4cncc(F)c4)c(C#N)c3c2=O)c2scc(C(=O)O)c2n1 [compound 394] | < 50 | 21.8 | –
Cc1cc(-c2c(Cl)cc3nc(C)n(CCOc4ccc(Cl)cc4-c4cc(C)nc5c(C(=O)O)csc45)c(=O)c3c2C#N)cc(C)n1 [compound 396] | < 50 | 18.1 | –
Cc1cc(S(=O)(=O)NC(=O)c2csc3c(-c4cc(Cl)ccc4C#CCn4c(C)nc5cnc(N(C)C6CCN(CC(C)(F)F)CC6)c(C#N)c5c4=O)ccnc23)ccn1 [compound 1682] | – | – | 15.1
Cc1nc2cnc(N3CCC4(CC3)CN(CC(F)F)C4)c(C#N)c2c(=O)n1CC#Cc1ccc(Cl)cc1-c1ccnc2c(C(=O)NS(=O)(=O)c3cccnc3)csc12 [compound 1409] | – | – | 10.8
Cc1nc2cc(CN3CC(F)(F)C3)c(OC(F)F)c(C#N)c2c(=O)n1CCOc1ccc(Cl)cc1-c1ccnc2c(C(=O)O)csc12 [compound 1277] | – | – | 38.4
CCN(c1ncc2nc(C)n(CC#Cc3ccc(Cl)cc3-c3ccnc4c(C(=O)NS(=O)(=O)c5ccncc5)csc34)c(=O)c2c1C#N)C1CCN(C2COC2)CC1 [compound 1740] | – | – | 12.6
Cc1nc2cc(C(F)(F)F)cc(C#N)c2c(=O)n1CC#Cc1ccc(Cl)cc1-c1ccnc2c(C(=O)O)csc12 [compound 120] | < 50 | 35.7 | –
CCOc1ncc2nc(C)n(CCOc3ccc(Cl)cc3-c3cc(C)nc4c(C(=O)O)csc34)c(=O)c2c1C#N [compound 1067] | < 50 | 10.5 | –
Cc1nc2cc(C(F)(F)F)cc(C#N)c2c(=O)n1CCOc1ccc(Cl)cc1-c1ccnc2c(C(=O)O)csc12 [compound 61] | < 50 | 26.5 | –
N#Cc1cccc2nc(C(F)F)n(CCOc3ccc(Cl)cc3-c3cccc(C(=O)O)c3)c(=O)c12 [compound 1986] | – | – | 78.5
Cc1nc2cncc(C#N)c2c(=O)n1CCOc1ccc(Cl)cc1-c1ccc(C(=O)O)c(C(=O)O)c1 [compound 147] | < 50 | 14.7 | –
Cc1cc(-c2cc(Cl)ccc2OCCn2c(C)nc3cc(Cl)cc(C#N)c3c2=O)c2scc(C(=O)O)c2n1 [compound 693] | < 50 | 15 | –
Cc1nc2cnc(C3=CCC(F)(F)CC3)c(C#N)c2c(=O)n1CC#Cc1ccc(Cl)cc1-c1ccnc2c(C(=O)O)csc12 [compound 1482] | – | – | 16.6
Cc1nc2cc(C(F)(F)F)cc(C#N)c2c(=O)n1CCOc1ccc(Cl)cc1-c1cc(C(=O)O)nc2ccsc12 [compound 201] | 50 to 1000 | 354 | –
Cc1nc2cnc(N3CCN(CC4(F)CC4)CC3)c(C#N)c2c(=O)n1CC#Cc1ccc(Cl)cc1-c1ccnc2c(C(=O)O)csc12 [compound 1167] | < 50 | 17.3 | –
